From patent publication US11214594B2, “Antimicrobial peptide having synergistic antibacterial effect with antibiotics on multidrug resistant bacteria, and use thereof” (priority 2016, dated 2022)
Values after ≈ are worked out from the molar mass of the structure shown. Where a SMILES comes first, the peptide text is derived from it. [ ]: non-standard residue; d: D form.

Columns and labels:
[1] = test system: MDREC 1238; format: cell-based, Escherichia coli
Summary of the method: (§1)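 MIC read-out = lowest peptide level with no bacterial proliferation. Strains diluted in MH medium to 2×10^6 CFU; peptide twofold serial dilutions in MH added 1:1 in microtiter wells.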

[2] = test system: MRSA 3126; format: cell-based, Staphylococcus aureus; conditions: 3126
Summary of the method: as §1

[3] = test system: MRSA 3114; format: cell-based, Staphylococcus aureus; conditions: 3114
Summary of the method: as §1

[4] = test system: S. aureus; test: microbe, parasite or virus in culture; format: cell-based, Staphylococcus aureus
Summary of the method: as §1

[5] = test system: MDREC 1229; test: MIC of antibiotic during combined treatment with antimicrobial peptide; format: cell-based, Escherichia coli
Summary of the method: (§2)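 Strains in MH medium at 2×10^6 CFU/ml were mixed with peptide diluted stepwise (2:1) from its MIC, then antibiotic dilutions in MH medium were added to give the antibiotic MIC. The reversed set-up, peptide titrated against fixed antibiotic, gave the peptide MIC.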

[6] = test system: MDRAB 12035; test: MIC of antimicrobial peptide during combined treatment with antibiotic; format: cell-based, Acinetobacter baumannii
Summary of the method: as §2

[7] = test system: A. baumannii; test: as above; format: cell-based, Acinetobacter baumannii
Summary of the method: as §2

[8] = peptide treatment concentration 1 μg/ml
[9] = peptide treatment concentration 2 μg/ml
[10] = peptide treatment concentration 4 μg/ml
[11] = peptide treatment concentration 6 μg/ml
[12] = peptide treatment concentration 8 μg/ml
[13] = peptide treatment concentration 16 μg/ml
[14] = peptide treatment concentration 32 μg/ml
[15] = peptide treatment concentration 64 μg/ml
[16] = erythromycin 4 μg/ml (Conc./MIC 1/8)
[17] = erythromycin 8 μg/ml (Conc./MIC 1/4)
[18] = erythromycin 16 μg/ml (Conc./MIC 1/2)
[19] = erythromycin 32 μg/ml (Conc./MIC 1)
[20] = vancomycin 512 μg/ml (Conc./MIC 1/2)
[21] = vancomycin 1024 μg/ml (Conc./MIC 1)

For `CC[C@H](C)[C@H](NC(=O)[C@H](CCCCN)NC(=O)[C@H](Cc1c[nH]c2ccccc12)NC(=O)[C@@H](N)CCCNC(=N)N)C(=O)N[C@@H](Cc1ccccc1)C(=O)N[C@@H](CCCCN)C(=O)N[C@@H](CCCCN)C(=O)N[C@H](C(=O)N[C@H](CCCCN)C(=O)N[C@@H](CCCCN)C(=O)N[C@@H](CC(C)C)C(=O)N[C@@H](CC(C)C)C(=O)N[C@@H](Cc1c[nH]cn1)C(=O)N[C@@H](CCC(=O)O)C(=O)N[C@@H](C)C(=O)N[C@@H](CCCCN)C(=O)N[C@@H](CCCCN)C(=O)N[C@@H](Cc1c[nH]c2ccccc12)C(N)=O)[C@@H](C)CC` [PapMA-20, RWK IFK KIk KLL HEA KKW-NH2] (H-RWKIFKKI[dK]KLLHEAKKW-NH2; N-terminus assumed), which “Minimal inhibitory concentration MIC” value [1] is on record?
The value was 32 µg/mL (≈ 13.4 µM).

And the “Minimal inhibitory concentration MIC” value [2]?
Its value is >128 µg/mL.

And the “Minimal inhibitory concentration MIC” value [3]?
The value was >128 µg/mL.

And the “Minimal inhibitory concentration MIC” value [4]?
The value was >128 µg/mL.

And the “Antibiotic MIC, Erythromycin” value [5, 8]?
The value was 128 µg/mL.

What about the “Antibiotic MIC, Linezolid” value [5, 8] of the same compound?
The value was >128 µg/mL.

What about the “Antibiotic MIC, Vancomycin” value [5, 8] of the same compound?
The value was >128 µg/mL.

And the “Antibiotic MIC, Erythromycin” value [5, 9]?
Its value is 32 µg/mL.

What about the “Antibiotic MIC, Linezolid” value [5, 9] of the same compound?
Its value is 64 µg/mL.

What about the “Antibiotic MIC, Vancomycin” value [5, 9] of the same compound?
Its value is >128 µg/mL.

And the “Antibiotic MIC, Erythromycin” value [5, 10]?
Its value is 8 µg/mL.

And the “Antibiotic MIC, Linezolid” value [5, 10]?
Its value is 16 µg/mL.

And the “Antibiotic MIC, Vancomycin” value [5, 10]?
Its value is 64 µg/mL.

And the “Antibiotic MIC, Erythromycin” value [5, 11]?
The value was 2 µg/mL.

What about the “Antibiotic MIC, Linezolid” value [5, 11] of the same compound?
The value was 16 µg/mL.

And the “Antibiotic MIC, Vancomycin” value [5, 11]?
The value was 16 µg/mL.

What about the “Antibiotic MIC, Erythromycin” value [5, 12] of the same compound?
The value was 1 µg/mL.

What about the “Antibiotic MIC, Linezolid” value [5, 12] of the same compound?
Its value is 8 µg/mL.

And the “Antibiotic MIC, Vancomycin” value [5, 12]?
The value was 8 µg/mL.

And the “Antibiotic MIC, Erythromycin” value [5, 13]?
The value was 0 µg/mL.

What about the “Antibiotic MIC, Linezolid” value [5, 13] of the same compound?
Its value is 0 µg/mL.

And the “Antibiotic MIC, Vancomycin” value [5, 13]?
The value was 0 µg/mL.

And the “Antibiotic MIC, Erythromycin” value [5, 14]?
The value was 0 µg/mL.

What about the “Antibiotic MIC, Linezolid” value [5, 14] of the same compound?
The value was 0 µg/mL.

What about the “Antibiotic MIC, Vancomycin” value [5, 14] of the same compound?
Its value is 0 µg/mL.

And the “Antibiotic MIC, Erythromycin” value [5, 15]?
The value was 0 µg/mL.

And the “Antibiotic MIC, Linezolid” value [5, 15]?
The value was 0 µg/mL.

What about the “Antibiotic MIC, Vancomycin” value [5, 15] of the same compound?
The value was 0 µg/mL.

And the “Peptide MIC during treatment with erythromycin” value [6, 16]?
Its value is 4 µg/mL.

What about the “Peptide MIC during treatment with erythromycin” value [6, 17] of the same compound?
The value was 4 µg/mL.

And the “Peptide MIC during treatment with erythromycin” value [6, 18]?
The value was 2 µg/mL.

And the “Peptide MIC during treatment with erythromycin” value [6, 19]?
Its value is 0 µg/mL.

And the “Peptide MIC during treatment with linezolid” value ([6]; linezolid 64 μg/ml (Conc./MIC 1/8))?
Its value is 4 µg/mL.

What about the “Peptide MIC during treatment with linezolid” value ([6]; linezolid 512 μg/ml (Conc./MIC 1)) of the same compound?
The value was 0 µg/mL.

And the “Peptide MIC during treatment with linezolid” value ([6]; linezolid […] (Conc./MIC 1/2))?
The value was 1 µg/mL.

What about the “Peptide MIC during treatment with linezolid” value ([6]; linezolid […] (Conc./MIC 1/4)) of the same compound?
Its value is 2 µg/mL.

What about the “Peptide MIC during treatment with vancomycin” value [6, 20] of the same compound?
Its value is 2 µg/mL.

What about the “Peptide MIC during treatment with vancomycin” value [6, 21] of the same compound?
Its value is 1 µg/mL.

What about the “Peptide MIC during treatment with vancomycin” value ([6]; vancomycin […] (Conc./MIC 1/4)) of the same compound?
Its value is 2 µg/mL.

What about the “Peptide MIC during treatment with vancomycin” value ([6]; vancomycin […] (Conc./MIC 1/8)) of the same compound?
Its value is 4 µg/mL.

And the “Peptide MIC during treatment with antibiotic” value [7, 16]?
Its value is 4 µg/mL.

And the “Peptide MIC during treatment with antibiotic” value [7, 17]?
Its value is 4 µg/mL.

And the “Peptide MIC during treatment with antibiotic” value [7, 18]?
Its value is 2 µg/mL.

What about the “Peptide MIC during treatment with antibiotic” value [7, 19] of the same compound?
Its value is 0 µg/mL.

What about the “Peptide MIC during treatment with antibiotic” value ([7]; linezolid 32 μg/ml (Conc./MIC 1/8)) of the same compound?
Its value is 4 µg/mL.

And the “Peptide MIC during treatment with antibiotic” value ([7]; linezolid 64 μg/ml (Conc./MIC 1/4))?
Its value is 2 µg/mL.

And the “Peptide MIC during treatment with antibiotic” value ([7]; linezolid […] (Conc./MIC 1))?
Its value is 0 µg/mL.

What about the “Peptide MIC during treatment with antibiotic” value ([7]; linezolid […] (Conc./MIC 1/2)) of the same compound?
The value was 1 µg/mL.

What about the “Peptide MIC during treatment with antibiotic” value [7, 20] of the same compound?
Its value is 0.25 µg/mL.

What about the “Peptide MIC during treatment with antibiotic” value [7, 21] of the same compound?
Its value is 0 µg/mL.

And the “Peptide MIC during treatment with antibiotic” value ([7]; vancomycin […] (Conc./MIC 1/4))?
The value was 0.5 µg/mL.

What about the “Peptide MIC during treatment with antibiotic” value ([7]; vancomycin […] (Conc./MIC 1/8)) of the same compound?
The value was 4 µg/mL.
